Data set [1] has as its target T1, COX-2 (Homo sapiens, UniProt P35354).
T1 sequence (P35354 18-604): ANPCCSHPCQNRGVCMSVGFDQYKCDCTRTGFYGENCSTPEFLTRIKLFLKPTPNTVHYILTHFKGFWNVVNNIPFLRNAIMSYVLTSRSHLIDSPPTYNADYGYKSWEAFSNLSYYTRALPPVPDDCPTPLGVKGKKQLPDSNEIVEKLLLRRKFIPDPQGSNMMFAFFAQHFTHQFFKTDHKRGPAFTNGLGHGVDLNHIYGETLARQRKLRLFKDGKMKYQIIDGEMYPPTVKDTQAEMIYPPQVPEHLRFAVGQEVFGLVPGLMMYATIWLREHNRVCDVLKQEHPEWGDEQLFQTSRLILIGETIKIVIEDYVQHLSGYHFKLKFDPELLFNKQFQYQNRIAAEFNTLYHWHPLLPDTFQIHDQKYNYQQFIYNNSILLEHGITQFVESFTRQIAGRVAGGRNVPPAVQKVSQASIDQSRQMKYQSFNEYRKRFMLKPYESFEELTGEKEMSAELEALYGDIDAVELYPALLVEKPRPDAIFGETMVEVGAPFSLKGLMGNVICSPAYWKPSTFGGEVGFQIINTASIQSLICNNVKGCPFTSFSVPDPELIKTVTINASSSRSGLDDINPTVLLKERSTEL
The data set is described as follows: Spectrophotometric assay of cox-2 (TMPD oxidation). More on the design: made in house; host or cells: sf-9 insect cells, baculovirus. It is filed as biochemical. The note with it: microsomes from sf-9 cells with human cox-2, read-out: Percent inhibition COX-2; for inhibition at 100 µM: Conc. 100 μM. As to the method: (§1) 1. Spectrophotometric assay of cox-1 and cox-2:
(§2) Microsomal fraction of ram seminal vesicles used as a source of cox-1 enzyme (Hemler et al., 1976) and microsomes from sf-9 cells infected with baculo virus containing human cox-2 c-DNA used as a source of cox-2 enzyme (Wanda et al., 1994). Enzyme activity was measured using a chromogenic assay based on oxidation of N,N,N′,N′-tetramethyl-p-phenylenediamine (TMPD) during the reduction of PGG2 to PGH2 as per described by Copeland et al., 1994 with following modifications. The assay mixture (1000 μl) contains […] pH 8.0, 3 μM EDTA, 15 μM hematin, 150 units enzyme and 8% DMSO. The mixture was pre-incubated at 25° C. for 15 minutes before initiation of enzyme reaction in presence of compound/vehicle. The reaction was initiated by the addition of 100 μM arachidonic acid and 120 μM TMPD. The enzyme activity is measured by estimation of the initial velocity of TMPD oxidation over the first 25 seconds of the reaction followed by increase in absorbency at […]. The IC50 values were calculated using non-linear regression analysis of percent inhibitions.

Another data set concerns the target T2, COX-1 (Homo sapiens, UniProt P23219).
T2 construct: Fresh heparinised human whole blood; endogenous in cells; host or cells: human whole blood
The data set can be described thus: Human whole blood assay, COX-1 inhibition. It is filed as cell-based. As for the experimental part: (§3) 2) Human Whole Blood Assay:
Fresh heparinised human whole blood was incubated with lipopolysaccharide (LPS) from E. coli at 100 μg/ml and with 2.5 μl vehicle (D)MSO) or test compound for 24 hours at 37° C. PGE2 levels in the plasma were measured using EIA kit (Cayman chemicals, USA) after deproteinization.

Another data set addresses T3, cox-1 enzyme (Ovis aries, UniProt P05979).
T3 construct: Microsomal fraction of ram seminal vesicles used as a source of cox-1 enzyme; from tissue; host or cells: ram seminal vesicles (microsomal fraction)
T3 sequence (P05979 25-600): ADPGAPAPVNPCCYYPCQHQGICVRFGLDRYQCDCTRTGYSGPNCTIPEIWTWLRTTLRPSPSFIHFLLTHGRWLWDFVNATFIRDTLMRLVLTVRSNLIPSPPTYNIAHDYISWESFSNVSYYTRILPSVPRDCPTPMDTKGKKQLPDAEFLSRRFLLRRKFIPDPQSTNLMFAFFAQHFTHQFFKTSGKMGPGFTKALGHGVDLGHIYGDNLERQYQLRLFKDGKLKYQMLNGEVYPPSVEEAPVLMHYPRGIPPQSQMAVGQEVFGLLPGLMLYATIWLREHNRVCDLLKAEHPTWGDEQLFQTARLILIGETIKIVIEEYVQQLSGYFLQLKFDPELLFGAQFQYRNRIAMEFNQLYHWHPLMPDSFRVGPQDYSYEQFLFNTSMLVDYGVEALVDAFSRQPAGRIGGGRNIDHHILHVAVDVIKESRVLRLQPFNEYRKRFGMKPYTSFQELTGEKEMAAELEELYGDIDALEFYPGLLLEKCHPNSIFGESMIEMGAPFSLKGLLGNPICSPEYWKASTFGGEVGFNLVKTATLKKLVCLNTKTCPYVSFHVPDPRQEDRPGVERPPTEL
The data set can be described thus: Spectrophotometric assay of cox-1 (TMPD oxidation). It counts as biochemical. The note with it: microsomal fraction of ram seminal vesicles, read-out: Percent inhibition COX-1; for inhibition at 100 µM: Conc. 100 μM. As for the experimental part:
as §1, §2

The target of data set [2] is T1, COX-2. The data set can be described thus: Human whole blood assay, COX-2 inhibition. It counts as cell-based. The note with it: read-out: IC50 COX-II. More on the design: endogenous in cells; host or cells: human whole blood. As for the experimental part:
as §3
An aliquot of fresh blood was mixed either with DMSO or test compounds and was allowed to clot for 1 hour at 37° C. TXB2 levels in the serum were measured using EIA kit (Cayman chemicals, USA) after deproteinization.

T2 sequence (P23219 24-599): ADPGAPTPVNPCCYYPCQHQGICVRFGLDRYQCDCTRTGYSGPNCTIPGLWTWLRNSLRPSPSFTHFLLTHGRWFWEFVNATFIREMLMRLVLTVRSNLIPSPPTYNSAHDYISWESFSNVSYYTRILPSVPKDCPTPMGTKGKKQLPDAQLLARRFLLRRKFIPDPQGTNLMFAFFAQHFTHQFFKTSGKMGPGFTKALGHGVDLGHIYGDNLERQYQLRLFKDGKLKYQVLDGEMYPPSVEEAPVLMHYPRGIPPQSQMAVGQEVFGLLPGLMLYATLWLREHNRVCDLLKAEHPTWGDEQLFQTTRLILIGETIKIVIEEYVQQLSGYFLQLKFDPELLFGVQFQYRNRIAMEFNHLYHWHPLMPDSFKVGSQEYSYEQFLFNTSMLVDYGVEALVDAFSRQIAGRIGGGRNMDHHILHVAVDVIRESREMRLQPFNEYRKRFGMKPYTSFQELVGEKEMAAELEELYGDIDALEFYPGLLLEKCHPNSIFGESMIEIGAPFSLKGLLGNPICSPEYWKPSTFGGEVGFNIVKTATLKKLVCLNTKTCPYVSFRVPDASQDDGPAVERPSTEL

On to `Cc1cc(C2=C(c3ccccc3)C(=O)OC2)ccc1S(C)(=O)=O` [Example 6, 4-(3-Methyl-4-methylsulfonylphenyl)-3-phenyl-2,5-dihydro-2-furanone], for which the melting point lay within 167 to 170 °C. In addition, at COX-2 [1], the inhibition at 100 µM stood at 82%. The IC50 at COX-1 was above 500 µM. For the same compound, the inhibition at 100 µM at cox-1 enzyme came to 0%. The IC50 at COX-2 [2] came to 5.7 µM.

`CS(=O)(=O)c1ccc(C2=C(c3cccc(F)c3)C(=O)OC2)c(F)c1` [Example 52, 4-(2-Fluoro-4-methylsulfonylphenyl)-3-(3-fluorophenyl)-2,5-dihydro-2-furanone]: the melting point fell in the range of 125 to 128 °C. In addition, on COX-2 [1], the inhibition at 100 µM is 100%. The compound also returned an IC50 at COX-1 of 1220 ± 20 µM. On cox-1 enzyme, the inhibition at 100 µM stood at 12%. The IC50 on COX-2 [2] was determined as 0.578 ± 0.011 µM.

`CSc1ccc(C2=C(c3ccc(S(C)(=O)=O)c(F)c3)COC2=O)cc1C` [Example 53, 4-(3-Fluoro-4-methylsulfonylphenyl)-3-(3-methyl-4-methylsulfanylphenyl)-2,5-dihydro-2-furanone]: the melting point fell in the range of 177 to 180 °C. The inhibition at 100 µM at COX-2 [1] is 100%. Also, the IC50 at COX-1 is 247 ± 24 µM. In addition, the inhibition at 100 µM at cox-1 enzyme was 44%. The IC50 on COX-2 [2] is 0.368 µM.

`COc1ccc(C2=C(c3ccc(S(C)(=O)=O)c(C)c3)COC2=O)cc1C` [Example 55, 3-(3-Methyl-4-methoxyphenyl)-4-(3-methyl-4-methylsulfonylphenyl)-2,5-dihydro-2-furanone] registered a melting point of 147 to 150 °C. Besides, the inhibition at 100 µM on COX-2 [1] was 100%. Also, the IC50 against COX-1 is above 100 µM. For the same compound, on cox-1 enzyme, the inhibition at 100 µM was 30%. Moreover, the IC50 at COX-2 [2] was determined as 1 µM.

Compound `COc1ccc(C2=C(c3ccc(S(C)(=O)=O)cc3F)COC2=O)cc1C` [Example 58, 4-(2-Fluoro-4-methylsulfonylphenyl)-3-(3-methyl-4-methoxyphenyl)-2,5-dihydro-2-furanone] registered a melting point of 144 to 146 °C. Further, the inhibition at 100 µM on COX-2 [1] turned out to be 93%. This compound gave an IC50 against COX-1 of 357 ± 7.45 µM. The inhibition at 100 µM at cox-1 enzyme turned out to be 19%. In addition, on COX-2 [2], the IC50 was 0.524 ± 0.062 µM.

In the case of `CCC1OC(=O)C(c2ccc(F)cc2)=C1c1ccc(S(C)(=O)=O)c(F)c1` (stereo not drawn) [Example 68, 5-Ethyl-4-(3-fluoro-4-methylsulfonylphenyl)-3-(4-fluorophenyl)-2,5-dihydro-2-furanone], the melting point lay in the range of 176 to 178 °C. For the same compound, the inhibition at 100 µM on COX-2 [1] worked out at 100%. The compound also came in with an IC50 at COX-1 of 297 µM. For the same compound, the inhibition at 100 µM at cox-1 enzyme is 0%. Moreover, the IC50 on COX-2 [2] worked out at 1.25 µM.

With `CS(=O)(=O)c1ccc(C2=C(c3ccc(F)c(F)c3)C(=O)OC2)c(F)c1` [Example 69, 3-(3,4-Difluorophenyl)-4-(2-fluoro-4-methylsulfonylphenyl)-2,5-dihydro-2-furanone], the melting point is 146 to 148 °C. The inhibition at 100 µM at COX-2 [1] is 93%. This compound displayed an IC50 against COX-1 above 500 µM. In addition, on cox-1 enzyme, the inhibition at 100 µM amounted to 10%. The IC50 at COX-2 [2] turned out to be 0.318 ± 0.013 µM.

As to `CS(=O)(=O)c1ccc(C2=C(c3cc(F)cc(F)c3)C(=O)OC2)c(F)c1` [Example 70, 3-(3,5-Difluorophenyl)-4-(2-fluoro-4-methylsulfonylphenyl)-2,5-dihydro-2-furanone], the melting point fell in the range of 125 to 127 °C. Also, the inhibition at 100 µM on COX-2 [1] was determined as 92%. At COX-1, this compound had an IC50 of 115 µM. Further, the inhibition at 100 µM at cox-1 enzyme came to 49%. The IC50 on COX-2 [2] was found to be 0.913 µM.

`CC1OC(=O)C(c2ccc(F)cc2)=C1c1ccc(S(C)(=O)=O)c(F)c1` (stereo not drawn) [Example 89, 4-(3-Fluoro-4-methylsulfonylphenyl)-3-(4-fluorophenyl)-5-methyl-2,5-dihydro-2-furanone] had a melting point of 190 to 192 °C. For the same compound, the inhibition at 10 µM on COX-2 [1] (Conc. 10 μM) worked out at 95%. Also, the IC50 on COX-1 is above 1000 µM. The inhibition at 10 µM on cox-1 enzyme (Conc. 10 μM) was determined as 0%. For the same compound, the IC50 at COX-2 [2] worked out at 6.13 µM.

By inhibition is commonly meant how much of the control response was suppressed. By IC50 is commonly meant the concentration that inhibits the measured activity by half. In general, melting point refers to the temperature of the solid-liquid transition.

Values taken from patent publication US6686390B2, “Compounds having antiinflamatory activity: process for their preparation and pharmaceutical compositions containing them” (Dr. Reddy's Laboratories Limited, priority 2000, dated 2004).
